Source: PubChem BioAssay AID1963446 (Molecular Pharmacology Branch, DTP, NCI, 2024)
Values joined by “and” are separate entries in the source; they are usually repeats but may differ in a detail not shown here. Equal entries are not always repeated.

Tested on: 993429-296-R-J1-PDC complex spheroid growth, percent test/control
Experiment: Anticancer human tumor 993429-296-R-J1-PDC patient-derived uterine sarcoma cell line growth inhibition [Asc]
Conditions: for viability, T/C: stronger effect = lower value
How it was run: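 Spheroid model: tumor line + HUVEC + hMSC. Single agents and combinations; top conc. at/near clinical Cmax (10 microM if undetermined), half-log dilutions. DMSO stocks at 800-fold test concentration.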

[1] = curve of first compound, second compound 0.1 µM
[2] = curve of first compound, second compound 0.316 µM
[3] = curve of first compound, second compound 1 µM
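Further: spheroids exposed to compounds for seven days.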

O=C(c1ccc(F)c(F)c1Nc1ccc(I)cc1F)N1CC(O)([C@@H]2CCCCN2)C1 + CCN1C(C(=O)NC23CCC(C(=O)O)(CC2)CC3)C(c2cccc(Cl)c2F)C2(C(=O)Nc3cc(Cl)ccc32)C12CCCCC2
IC50 (curve of first compound, second compound 0.03 µM): 42.6 nM
IC50 (curve of first compound, second compound 0.0949 µM): 64.6 nM
IC50 (curve of first compound, second compound 0.3 µM): 42.4 nM
IC50 (curve of first compound, second compound 0.949 µM): 50.1 nM
IC50 (curve of first compound, second compound 3 µM): 19.3 nM
viability, T/C (second compound 0.03 µM, first compound 0.00316 µM): 98%
viability, T/C (second compound 0.03 µM, first compound 0.01 µM): 72.2%
viability, T/C (second compound 0.03 µM, first compound 0.0316 µM): 58%
viability, T/C (second compound 0.03 µM, first compound 0.1 µM): 38.7%
viability, T/C (second compound 0.03 µM, first compound 0.316 µM): 8.47%
viability, T/C (second compound 0.03 µM, first compound 1 µM): 1.77%
viability, T/C (second compound 0.0949 µM, first compound 0.00316 µM): 80.2%
viability, T/C (second compound 0.0949 µM, first compound 0.01 µM): 87.7%
viability, T/C (second compound 0.0949 µM, first compound 0.0316 µM): 66%
viability, T/C (second compound 0.0949 µM, first compound 0.1 µM): 39.8%
viability, T/C (second compound 0.0949 µM, first compound 0.316 µM): 8.87%
viability, T/C (second compound 0.0949 µM, first compound 1 µM): 1.19%
viability, T/C (second compound 0.3 µM, first compound 0.00316 µM): 85.8%
viability, T/C (second compound 0.3 µM, first compound 0.01 µM): 74.7%
viability, T/C (second compound 0.3 µM, first compound 0.0316 µM): 61.1%
viability, T/C (second compound 0.3 µM, first compound 0.1 µM): 22.3%
viability, T/C (second compound 0.3 µM, first compound 0.316 µM): 8.15%
viability, T/C (second compound 0.3 µM, first compound 1 µM): 2.9%
viability, T/C (second compound 0.949 µM, first compound 0.00316 µM): 86.8%
viability, T/C (second compound 0.949 µM, first compound 0.01 µM): 67.3%
viability, T/C (second compound 0.949 µM, first compound 0.0316 µM): 66.3%
viability, T/C (second compound 0.949 µM, first compound 0.1 µM): 30.9%
viability, T/C (second compound 0.949 µM, first compound 0.316 µM): 8.19%
viability, T/C (second compound 0.949 µM, first compound 1 µM): 2.6%
viability, T/C (second compound 3 µM, first compound 0.00316 µM): 74.9%
viability, T/C (second compound 3 µM, first compound 0.01 µM): 64.4%
viability, T/C (second compound 3 µM, first compound 0.0316 µM): 38.3%
viability, T/C (second compound 3 µM, first compound 0.1 µM): 20.6%
viability, T/C (second compound 3 µM, first compound 0.316 µM): 5.52%
viability, T/C (second compound 3 µM, first compound 1 µM): 0.67%

Cn1ncnc1[C@H]1c2n[nH]c(=O)c3cc(F)cc(c23)N[C@@H]1c1ccc(F)cc1
viability, T/C (compound 0.000316 µM): 92.8% and 98.9% and 94.3%
viability, T/C (compound 0.001 µM): 93.2% and 97.5% and 95.5%
viability, T/C (compound 0.00316 µM): 83.8% and 99.4% and 81.2%
viability, T/C (compound 0.01 µM): 74.3% and 92% and 84.6%
viability, T/C (compound 0.0316 µM): 62.5% and 70.2% and 57.7%
viability, T/C (compound 0.1 µM): 35.8% and 69.9% and 42%
IC50 (curve of compound): 52.4 nM and > 100 nM and 58.6 nM

NC(=O)C(=Cn1cnc(-c2cc(C(F)(F)F)cc(C(F)(F)F)c2)n1)c1cncnc1
viability, T/C (compound 0.000949 µM): 94.3% and 102% and 110%
viability, T/C (compound 0.003 µM): 82.4% and 87.5% and 105%
viability, T/C (compound 0.00949 µM): 76.6% and 76% and 91.7%
viability, T/C (compound 0.03 µM): 41.9% and 34.6% and 60.8%
viability, T/C (compound 0.0949 µM): 17% and 17.8% and 30.1%
viability, T/C (compound 0.3 µM): 8.93% and 7.15% and 11.8%
IC50 (curve of compound): 23 nM and 19.9 nM and 45.4 nM

CCN1CCN(Cc2ccc(Nc3ncc(F)c(-c4cc(F)c5nc(C)n(C(C)C)c5c4)n3)nc2)CC1 + CNC(C)C(=O)NC1CN(S(=O)(=O)c2cccc(S(=O)(=O)N3CCC4CCC(C(=O)NC(c5ccccc5)c5ccccc5)N4C(=O)C(NC(=O)C(C)NC)C3)c2)CCC2CCC(C(=O)NC(c3ccccc3)c3ccccc3)N2C1=O
IC50 (curve of first compound, second compound 0.01 µM): > 1000 nM
IC50 (curve of first compound, second compound 0.0316 µM): > 1000 nM
IC50 [1]: > 1000 nM
IC50 [2]: < 3.16 nM
IC50 [3]: > 1000 nM
viability, T/C (second compound 0.01 µM, first compound 0.00316 µM): 58.4%
viability, T/C (second compound 0.01 µM, first compound 0.01 µM): 66.1%
viability, T/C (second compound 0.01 µM, first compound 0.0316 µM): 64%
viability, T/C (second compound 0.01 µM, first compound 0.1 µM): 68.4%
viability, T/C (second compound 0.01 µM, first compound 0.316 µM): 67.7%
viability, T/C (second compound 0.01 µM, first compound 1 µM): 76%
viability, T/C (second compound 0.0316 µM, first compound 0.00316 µM): 54.1%
viability, T/C (second compound 0.0316 µM, first compound 0.01 µM): 63.4%
viability, T/C (second compound 0.0316 µM, first compound 0.0316 µM): 59.5%
viability, T/C (second compound 0.0316 µM, first compound 0.1 µM): 53.6%
viability, T/C (second compound 0.0316 µM, first compound 0.316 µM): 71.4%
viability, T/C (second compound 0.0316 µM, first compound 1 µM): 77.4%
viability, T/C (second compound 0.1 µM, first compound 0.00316 µM): 52%
viability, T/C (second compound 0.1 µM, first compound 0.01 µM): 54%
viability, T/C (second compound 0.1 µM, first compound 0.0316 µM): 56.2%
viability, T/C (second compound 0.1 µM, first compound 0.1 µM): 54%
viability, T/C (second compound 0.1 µM, first compound 0.316 µM): 59.8%
viability, T/C (second compound 0.1 µM, first compound 1 µM): 62.4%
viability, T/C (second compound 0.316 µM, first compound 0.00316 µM): 45.3%
viability, T/C (second compound 0.316 µM, first compound 0.01 µM): 46.2%
viability, T/C (second compound 0.316 µM, first compound 0.0316 µM): 41%
viability, T/C (second compound 0.316 µM, first compound 0.1 µM): 53.2%
viability, T/C (second compound 0.316 µM, first compound 0.316 µM): 69%
viability, T/C (second compound 0.316 µM, first compound 1 µM): 70%
viability, T/C (second compound 1 µM, first compound 0.00316 µM): 53.5%
viability, T/C (second compound 1 µM, first compound 0.01 µM): 58.7%
viability, T/C (second compound 1 µM, first compound 0.0316 µM): 38.9%
viability, T/C (second compound 1 µM, first compound 0.1 µM): 51.4%
viability, T/C (second compound 1 µM, first compound 0.316 µM): 49.6%
viability, T/C (second compound 1 µM, first compound 1 µM): 60.3%

Cc1nc(N2CCC3(CC2)COC(C)C3N)c(CO)nc1Sc1ccnc(N)c1Cl (centres undefined) + Cc1c(S(C)(=O)=O)c(-c2cc(F)cc(N3CCN(c4ccc(NS(=O)(=O)c5ccc(NC(CCN6CCC(C(=O)OCCCP(=O)(O)O)CC6)CSc6ccccc6)c(S(=O)(=O)C(F)(F)F)c5)cc4)CC3)c2)c(-c2ccc(Cl)cc2)n1C(C)C
IC50 [1]: 80.2 nM
IC50 [2]: 30.5 nM
IC50 [3]: 14.6 nM
IC50 (curve of first compound, second compound 3.16 µM): < 9.49 nM
IC50 (curve of first compound, second compound 10 µM): 98.7 nM
viability, T/C (second compound 0.1 µM, first compound 0.00949 µM): 71.1%
viability, T/C (second compound 0.1 µM, first compound 0.03 µM): 64.3%
viability, T/C (second compound 0.1 µM, first compound 0.0949 µM): 47.2%
viability, T/C (second compound 0.1 µM, first compound 0.3 µM): 29.7%
viability, T/C (second compound 0.1 µM, first compound 0.949 µM): 18.8%
viability, T/C (second compound 0.1 µM, first compound 3 µM): 17.1%
viability, T/C (second compound 0.316 µM, first compound 0.00949 µM): 60.7%
viability, T/C (second compound 0.316 µM, first compound 0.03 µM): 49.3%
viability, T/C (second compound 0.316 µM, first compound 0.0949 µM): 35.7%
viability, T/C (second compound 0.316 µM, first compound 0.3 µM): 21.9%
viability, T/C (second compound 0.316 µM, first compound 0.949 µM): 14.1%
viability, T/C (second compound 0.316 µM, first compound 3 µM): 14.7%
viability, T/C (second compound 1 µM, first compound 0.00949 µM): 52.2%
viability, T/C (second compound 1 µM, first compound 0.03 µM): 46.3%
viability, T/C (second compound 1 µM, first compound 0.0949 µM): 27%
viability, T/C (second compound 1 µM, first compound 0.3 µM): 14.5%
viability, T/C (second compound 1 µM, first compound 0.949 µM): 14.4%
viability, T/C (second compound 1 µM, first compound 3 µM): 10.1%
viability, T/C (second compound 3.16 µM, first compound 0.00949 µM): 34.6%
viability, T/C (second compound 3.16 µM, first compound 0.03 µM): 29.8%
viability, T/C (second compound 3.16 µM, first compound 0.0949 µM): 33.6%
viability, T/C (second compound 3.16 µM, first compound 0.3 µM): 13.2%
viability, T/C (second compound 3.16 µM, first compound 0.949 µM): 10.8%
viability, T/C (second compound 3.16 µM, first compound 3 µM): 8.71%
viability, T/C (second compound 10 µM, first compound 0.00949 µM): 76.7%
viability, T/C (second compound 10 µM, first compound 0.03 µM): 67.5%
viability, T/C (second compound 10 µM, first compound 0.0949 µM): 51.1%
viability, T/C (second compound 10 µM, first compound 0.3 µM): 29.9%
viability, T/C (second compound 10 µM, first compound 0.949 µM): 14.4%
viability, T/C (second compound 10 µM, first compound 3 µM): 13.8%
